Where a name gives a salt, the structure may show the parent alone. Read-outs that look alike come from different tables or passages of the source. Values belong to the compound of their own block, whether it stands above or below them.
Columns and labels:
[1] = system: sucrase; conditions: cited from earlier work
[2] = target: T1, glucoamylase G2 form from Aspergillus niger (Aspergillus niger, UniProt P69328); test: Inhibition of glucoamylase G2-catalyzed hydrolysis of maltose; assay type: biochemical
T1 construct: purchased Novo Nordisk, Bagsvaerd, Denmark
T1 sequence (P69328 other isoform, or with tags, fused parts or gaps): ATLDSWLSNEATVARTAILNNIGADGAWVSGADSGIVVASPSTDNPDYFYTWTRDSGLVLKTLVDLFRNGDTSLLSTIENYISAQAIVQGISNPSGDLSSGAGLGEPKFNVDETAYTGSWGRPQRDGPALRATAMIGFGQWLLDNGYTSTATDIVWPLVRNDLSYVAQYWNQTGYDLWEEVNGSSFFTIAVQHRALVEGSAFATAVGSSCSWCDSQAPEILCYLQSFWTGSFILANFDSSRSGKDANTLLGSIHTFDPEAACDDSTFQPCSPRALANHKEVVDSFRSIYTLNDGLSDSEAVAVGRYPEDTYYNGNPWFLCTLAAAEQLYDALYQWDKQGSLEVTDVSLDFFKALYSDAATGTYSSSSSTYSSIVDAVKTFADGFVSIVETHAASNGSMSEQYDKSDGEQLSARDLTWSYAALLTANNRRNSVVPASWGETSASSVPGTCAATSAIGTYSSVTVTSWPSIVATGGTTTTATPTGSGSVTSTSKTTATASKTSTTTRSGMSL
Protocol: The glucoamylase G2 form from Aspergillus niger was purified from a commercial enzyme (Novo Nordisk, Bagsvaerd, Denmark) as described.^19,20 The initial rates of glucoamylase G2-catalyzed hydrolysis of maltose was tested with 1 mM maltose as substrate in 0.1 M sodium acetate pH 4.5 at 45° C. using an enzyme concentration of 7.0×10^−8 M and five inhibitor concentrations in the range 1 μm-5 mM. The effect of the inhibition on rates of substrate hydrolysis were compared for the different compounds.

[3] = target: T2, porcine pancreatic α-amylase (PPA) (Sus scrofa, UniProt P00690); test: Inhibition of porcine pancreatic α-amylase activity towards DP17 amylose; assay type: biochemical
T2 construct: purchased Sigma
T2 sequence (P00690 16-511): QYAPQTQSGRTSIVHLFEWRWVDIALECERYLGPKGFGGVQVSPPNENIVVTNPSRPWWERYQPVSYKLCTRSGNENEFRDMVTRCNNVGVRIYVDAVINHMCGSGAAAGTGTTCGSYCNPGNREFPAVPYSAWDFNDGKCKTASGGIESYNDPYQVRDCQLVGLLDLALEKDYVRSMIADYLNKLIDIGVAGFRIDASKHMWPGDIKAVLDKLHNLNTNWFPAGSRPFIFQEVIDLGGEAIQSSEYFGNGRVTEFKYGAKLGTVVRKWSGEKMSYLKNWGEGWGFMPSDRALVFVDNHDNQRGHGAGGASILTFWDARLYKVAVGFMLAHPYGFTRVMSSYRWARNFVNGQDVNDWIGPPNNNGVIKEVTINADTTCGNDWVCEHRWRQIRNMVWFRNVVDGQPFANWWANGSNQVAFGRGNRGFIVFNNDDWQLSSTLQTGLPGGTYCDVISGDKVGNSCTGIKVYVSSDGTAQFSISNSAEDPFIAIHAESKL
Text: (§1) Porcine pancreatic α-amylase (PPA) and bovine serum albumin (BSA) were purchased from Sigma. Amylose EX-1 (DP17; average degree of polymerization 17) was purchased from Hayashibara Chemical Laboratories (Okayama, Japan). Recombinant barley α-amylase isozyme 1 (AMY1) was produced and purified as described.^23 An aliquot of the porcine pancreatic x-amylase (PPA) crystalline suspension (in ammonium sulfate) was dialyzed extensively against the assay buffer without BSA. The enzyme concentration was determined by aid of amino acid analysis as determined using an LKB model Alpha Plus amino acid analyzer. […] Six different final inhibitor concentrations were used in the range 1 μM-5 mM. The inhibitor was pre-incubated with enzyme for 5 min at 37° C. before addition of substrate.

[4] = target: T3, Recombinant barley α-amylase isozyme 1 (AMY1) (Hordeum vulgare, UniProt P00693); test: Inhibition of barley α-amylase isozyme 1 activity towards DP17 amylose; assay type: biochemical
T3 construct: made in house
T3 sequence (P00693 25-438): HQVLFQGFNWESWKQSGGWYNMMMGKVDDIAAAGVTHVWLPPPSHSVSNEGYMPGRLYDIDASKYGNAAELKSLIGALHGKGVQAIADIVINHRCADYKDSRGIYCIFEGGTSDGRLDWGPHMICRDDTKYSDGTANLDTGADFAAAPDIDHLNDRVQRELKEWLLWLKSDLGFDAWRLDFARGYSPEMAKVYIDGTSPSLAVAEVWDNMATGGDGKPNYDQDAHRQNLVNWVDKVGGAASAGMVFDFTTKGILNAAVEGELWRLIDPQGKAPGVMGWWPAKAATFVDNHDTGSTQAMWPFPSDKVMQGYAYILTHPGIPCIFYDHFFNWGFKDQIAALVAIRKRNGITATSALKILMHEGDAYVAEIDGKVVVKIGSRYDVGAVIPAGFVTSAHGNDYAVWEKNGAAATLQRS
Text: as §1

[5] = target: T4, Human Pancreatic α-Amylase (HPA) (Homo sapiens, UniProt P04746); test: Human pancreatic α-amylase assay, hydrolysis of 2,4-Dinitrophenyl maltotrioside; assay type: biochemical; conditions: for Ki: n.a. = not active
T4 sequence (P04746 16-511): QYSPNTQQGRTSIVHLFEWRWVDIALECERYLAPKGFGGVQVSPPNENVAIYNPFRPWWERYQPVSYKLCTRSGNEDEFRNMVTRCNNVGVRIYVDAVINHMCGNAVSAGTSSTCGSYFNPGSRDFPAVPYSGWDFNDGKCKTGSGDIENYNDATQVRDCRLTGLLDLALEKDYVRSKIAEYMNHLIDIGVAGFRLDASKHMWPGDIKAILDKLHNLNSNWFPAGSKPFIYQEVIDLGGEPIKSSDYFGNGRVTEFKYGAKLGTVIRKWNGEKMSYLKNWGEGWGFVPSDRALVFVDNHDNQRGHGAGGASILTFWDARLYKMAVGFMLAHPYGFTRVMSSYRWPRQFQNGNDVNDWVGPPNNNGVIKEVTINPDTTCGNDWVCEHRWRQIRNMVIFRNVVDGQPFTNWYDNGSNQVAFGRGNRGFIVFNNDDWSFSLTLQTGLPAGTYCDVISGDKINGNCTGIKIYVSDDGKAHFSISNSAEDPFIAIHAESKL
Protocol: These assays were performed with purified enzyme. The ability of candidate inhibitors to inhibit the hydrolysis of 2,4-Dinitrophenyl maltotrioside was monitored by UV-visible spectroscopy of the released 2,4-dinitrophenol.

[6] = target: Maltase Glucoamylase (MGA) (Homo sapiens, UniProt O43451); test: MGA activity in extracts of COS cells transfected with MGA5′ (maltase subunit) construct, maltose hydrolysis, glucose oxidase colorimetric assay; assay type: biochemical; parameters: COS cells transfected with MGA5′ (maltase subunit clone 10) construct were used; expressed in transfected cells; host or cells: COS cells; conditions: for Ki MGA (Human intestinal maltase glucoamylase): only the order of magnitude of activity (nM, μM, mM) or n.a. = not active
Maltase Glucoamylase (MGA), sequence (O43451 356-737 limits assumed): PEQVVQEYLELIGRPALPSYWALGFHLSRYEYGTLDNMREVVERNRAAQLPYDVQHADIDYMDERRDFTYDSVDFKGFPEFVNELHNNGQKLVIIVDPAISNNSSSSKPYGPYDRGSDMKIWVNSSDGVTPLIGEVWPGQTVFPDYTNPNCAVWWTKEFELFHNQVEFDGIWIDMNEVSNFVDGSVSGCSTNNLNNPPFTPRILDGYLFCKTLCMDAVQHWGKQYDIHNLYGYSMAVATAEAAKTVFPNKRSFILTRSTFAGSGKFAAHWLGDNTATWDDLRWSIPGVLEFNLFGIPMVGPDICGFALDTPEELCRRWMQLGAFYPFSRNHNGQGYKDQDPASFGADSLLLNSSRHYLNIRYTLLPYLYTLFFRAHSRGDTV
Protocol: In the assays, COS cells transfected with MGA5′ (maltase subunit clone 10) construct were used. Activity measurements were performed with cell extracts containing MGA. Maltose hydrolysis was monitored by measurement of the glucose released by a glucose oxidase colorimetric assay. Inhibition of this hydrolysis was measured as a reduction in OD reading.
In practice, an OD reading in the absence of the inhibitor was recorded, followed by a reading in the presence of the inhibitor. The percent reduction in OD reading upon administering a candidate inhibitor (see Table 11) was then correlated with a percent inhibition for a given concentration.

[7] = system: maltase activity in biopsies with live intestinal cells; test: Maltase activity in biopsies with live intestinal cells; assay type: cell-based, human; conditions: 5 μM concentration
Text: • 1) It appears that Acarbose acts principally by inhibiting human pancreatic α-amylase (HPA) and the breakdown of starch.

[8] = system: Sprague-Dawley rats; test: In vivo maltose gavage in catheterized rats: plasma glucose and insulin; parameters: species or system rat; conditions: maltose gavage 1000 mg/kg with 25 mg/kg drug; for decrease of the 90 minute insulin AUC: versus Control
Protocol: Five week old Sprague-Dawley rats were housed singly under a 12:12-h light-dark photoperiod and given free access to water and rat chow (Purina rodent chow). After one week of acclimation, chronic indwelling catheters were implanted.
Animals were anesthetized with a combination of Ketamine-Xylazine-Butorphanol (0.1 ml/100 g im). Analgesic (Butorphenol, 1 mg/kg sc) was administered following recovery from anesthesia and the following morning. Antibiotic was administered by one dose sc and in the drinking water for 4 days post-operative (Baytril, 5 mg/kg sc, Bayer, Toronto, Canada; Baytril, 50 mg/ml: 0.36 ml solution in 250 ml drinking water). A sterile catheter (Intramedic PE-50 with ˜3 cm beveled Silastic tip) was placed in the left carotid artery and the distal end of the catheter was tunneled subcutaneously, exteriorized, and anchored at the nape of the neck. The catheters were protected from chewing by a stainless steel tether connected to a swivel system which allowed free movement of the animal and easy access to the catheter by the investigator.
The animals were allowed to recover for 1 week. Experiments were performed on conscious, unrestrained animals that had been fasted overnight by removal of chow from the cage hoppers at 2100. At 0800 the following morning animals were weighed and Atropine (0.05 mg/kg sc) was administered as a […]. At baseline, animals were administered a bolus of maltose by oral gavage (1000 mg/kg body weight) with or without drug (25 mg/kg body weight for all agents). Blood samples (0.1 mL) were taken via the implanted carotid line at -15 and -5 min for the baseline and at 7, 15, 30, 60, 90, 120, 210, 300 min.
Blood samples were kept on ice in microcentrifuge tubes and then were centrifuged. The plasma was stored at −20° C. until it was assayed. Plasma volume was triple replaced with heparinized saline (10u/mL), but red blood cells were not reinfused. Plasma glucose was assayed with the glucose oxidase method (Trinder RAICHEM Division of Hemagen Diagnostics, Inc. San Diego, Calif.). Plasma insulin concentrations were measured by rat insulin ELISA (Crystal Chem INC, Downers Grove, Ill.). Six experiments were performed for each treatment (control, Blintol, Acarbose, Salacinol).
All data are presented as means±SE. The significance of changes in plasma glucose and insulin were tested by two-way repeated-measures analysis of variance and were performed with the Statistical Analysis System for Windows (version 6.3, SAS Institute, Cary, N.C.). AUCs were compared using unpaired t-tests.

[9] = Stability on storage in aqueous solution; assay type: physicochemical
[10] = read-out: Ki PPA (Porcine pancreatic α-amylase)
[11] = read-out: Ki AMY1 (Barley α-amylase)

SMILES: O=S(=O)([O-])O[C@@H]([C@H](O)[C@H](O)[C@@H](O)CO)[C@H](O)C[S+]1C[C@@H](O)[C@H](O)[C@H]1CO (some centres unmarked) [Kotalanol]
- inhibitory activity against sucrase (in words) [1]: more potent inhibitory activity against sucrase than Salicinol and Acarbose

SMILES: O=S(=O)([O-])O[C@@H](CO)[C@H](O)C[S@+]1C[C@@H](O)[C@H](O)[C@H]1CO
- Ki [2]: 1710 µM
- Ki [3, 10]: 10 µM
- Ki [4, 11]: 15 µM
- Ki [5]: 75 µM

- Ki [5]: > 5000 µM
SMILES: O=S(=O)([O-])O[C@H](CO)[C@@H](O)C[Se+]1C[C@@H](O)[C@H](O)[C@@H](O)C1 (some centres unmarked)

- Ki MGA (Human intestinal maltase glucoamylase) [6]: mM
- Ki [5]: > 5000 µM
SMILES: O=S(=O)([O-])O[C@H](CO)[C@@H](O)C[S@+]1C[C@@H](O)[C@H](O)[C@@H](O)C1

SMILES: O=S(=O)([O-])O[C@@H](CO)[C@H](O)C[Se@+]1C[C@@H](O)[C@H](O)[C@H]1CO
- Ki [3]: > 5000 µM
- Ki [4]: > 5000 µM
- Ki MGA (Human intestinal maltase glucoamylase) [6]: nM
- Ki [5]: > 5000 µM

SMILES: O=S(=O)([O-])OC(CO)C(O)C[Se+]1CC(O)C(O)C1CO [Blintol, 1,4-Dideoxy-1,4-[[(2S,3S)-2,4-dihydroxy-3-(sulfooxy)butyl]episelenoniumylidene]-D-arabinitol Inner Salt]
- percent inhibition of maltase activity [7]: 50%
- IC50 [6]: 0.2 µM
- time at which insulin values were different from basal [8]: 15 min
- time at which plasma glucose returned to basal [8]: 60 min
- 15 minute glucose excursion from basal ([8]; mean ± SE, n=6): 29.3 ± 6.5 mg/dL
- decrease of the 90 minute insulin AUC [8]: 53%

SMILES: O=S(=O)(O)O[C@H](CO)[C@@H](O)CN1C[C@H](O)[C@@H](O)[C@@H]1CO
- Ki ([2]; read-out: Ki GA (Glucoamylase)): > 8000 µM
- Ki [3, 10]: > 5000 µM
- Ki [4, 11]: > 5000 µM
- Ki [5]: 400 µM

SMILES: O=S(=O)([O-])OC(CO)C(O)C[S+]1CC(O)C(O)C1CO [Salacinol, 1,4-Dideoxy-1,4-[[(2S,3S)-2,4-dihydroxy-3-(sulfooxy)butyl]-episulfoniumylidene]-D-arabinitol Inner Salt, reference compound]
- Ki [2]: 1700 µM
- percent inhibition of maltase activity [7]: 13%
- Ki ([3]; amylose DP17, pH 6.9, 37° C., read-out: Ki value, PPA): 10 ± 2 µM
- Ki ([4]; amylose DP17, pH 5.5, 37° C., read-out: Ki value, AMY1): 15 ± 1 µM
- inhibition of MGA (in words) [6]: inhibits both HPA and MGA
- inhibition at 5 µM ([6]; read-out: percent inhibition of the breakdown of maltose): 60%
- plasma glucose profile (in words) [8]: significantly lower post-prandial plasma glucose
- plasma insulin profile (in words) [8]: significantly lower post-prandial plasma glucose and insulin concentrations
- time at which insulin values were different from basal [8]: 15 min
- time at which plasma glucose returned to basal [8]: 60 min
- glucose Area Under the Curve, 0-90 minutes (in words) ([8]; excursion above basal): slightly lower 90 minute AUC's than Acarbose
- decrease of the 90 minute insulin AUC [8]: 65%
- inhibition of HPA (in words) [5]: inhibits both HPA and MGA

- stability on storage in aqueous solution ([9]; aqueous solution, several days at ambient temperature): unchanged
SMILES: O=S(=O)([O-])O[C@H]1[C@H](O)C(O)O[C@@H]1C[S@+]1C[C@@H](O)[C@H](O)[C@H]1CO (stereo partly drawn) [Compound 101, 3-O-sulfoxy-5-deoxy-5-[1,4-dideoxy-1,4-episufoniumylidene-D-arabinitol]-α/β-D-arabinose inner salt]

- stability of the 3′-sulfate ester on storage ([9]; D2O/NaOD at pH>10, 2 days at ambient temperature): completely hydrolyzed
SMILES: O=S(=O)(O)O[C@H](CO)[C@@H](O)CN1C[C@H](O)[C@@H](O)[C@H](O)[C@H]1CO [Compound 67b, 1,5-Dideoxy-1,5-[[N-(2R,RS)-2,4-dihydroxy-3-(sulfooxy)-butyl]iminoonium]-D-glucitol]

- Ki [5]: > 5000 µM
SMILES: O=S(=O)([O-])O[C@H](CO)[C@@H](O)C[S@@+]1C[C@@H](O)[C@H](O)[C@@H](O)C1
